From patent publication US6737383B1, “Herbicidal oxadiazolidines” (priority 1999, dated 2004)

Tests used:
bedstraw = experiment: Test B pre/postemergence bedstraw; format: in vivo, Galium aparine
Procedure, shortened: (§1)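 Herbicidal effect was estimated by eye on a ten-point control scale after plants spent twelve to sixteen days in a greenhouse following soil or foliar treatment. Foliar sprays targeted plants at one to four leaves; all doses were formulated in a non-phytotoxic solvent with surfactant.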

wheat = experiment: Test B pre/postemergence wheat; format: in vivo, Triticum aestivum
Procedure, shortened: as §1

rice = experiment: Test B flood test rice; format: in vivo, Oryza sativa; conditions: for Plant response rating, Rice (0 to 10 scale, 0 is no effect, 10 is complete control): Rate 62 g/ha, Pre-emergence; for Plant response rating, Rice (0 to 10 scale, 0 is no effect, 10 is complete control) / Rice plant response rating (0 to 10 scale, 0 is no effect, 10 is complete control): flood test species, visual evaluation after twelve to sixteen days; for Rice plant response rating (0 to 10 scale, 0 is no effect, 10 is complete control): Rate 125 g/ha, under heading Pre-emergence
Procedure, shortened: (§2)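 Flood test on plants grown to the 2-leaf stage; treated plants kept in greenhouse twelve to sixteen days, then visually rated against controls on a 0 (no effect) to 10 (complete control) scale.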

duck salad = experiment: Test B flood test duck salad; format: in vivo, Heteranthera limosa; conditions: for Plant response rating, Ducksalad (0 to 10 scale, 0 is no effect, 10 is complete control): Rate 62 g/ha, Pre-emergence; for Plant response rating, Ducksalad (0 to 10 scale, 0 is no effect, 10 is complete control) / Ducksalad plant response rating (0 to 10 scale, 0 is no effect, 10 is complete control): flood test species, visual evaluation after twelve to sixteen days; for Ducksalad plant response rating (0 to 10 scale, 0 is no effect, 10 is complete control): Rate 125 g/ha, under heading Pre-emergence
Procedure, shortened: as §2

[1] = Postemergence, Rate 62 g/ha, scale of 0 to 10, 0 is no effect, 10 is complete control
[2] = Preemergence, Rate 62 g/ha, scale 0 to 10 (0 no effect, 10 complete control)
[3] = Preemergence, Rate 125 g/ha, scale 0 to 10, 0 is no effect, 10 is complete control
[4] = Preemergence, Rate 500 g/ha, scale of 0 to 10 where 0 is no effect and 10 is complete control
[5] = Rate 250 g/ha, Postemergence, scale of 0 to 10 where 0 is no effect and 10 is complete control
[6] = Postemergence, Rate 500 g/ha, scale of 0 to 10 where 0 is no effect and 10 is complete control
[7] = Rate 250 g/ha, Pre-emergence (flood test species), scale 0 to 10, 0 is no effect, 10 is complete control
[8] = Rate 500 g/ha, Pre-emergence section of Table B, 0 to 10 scale (0 no effect, 10 complete control)
[9] = Postemergence, Rate 125 g/ha, scale of 0 to 10 where 0 is no effect and 10 is complete control
[10] = Preemergence, Rate 125 g/ha, scale of 0 to 10 where 0 is no effect and 10 is complete control
[11] = Postemergence, Rate 250 g/ha, scale of 0 to 10, 0 is no effect, 10 is complete control

SMILES | Bedstraw plant response rating (bedstraw; [1]) | Bedstraw plant response rating (bedstraw; [2]) | Bedstraw plant response rating (bedstraw; [3]) | Bedstraw plant response rating (0 to 10 scale) (bedstraw; Preemergence, Rate 250 g/ha) | Bedstraw plant response rating (bedstraw; [4]) | Plant response rating, Wheat (wheat; [6]) | Wheat plant response rating (wheat; [2]) | Wheat plant response rating (wheat; [3]) | Wheat plant response rating (0 to 10 scale) (wheat; Preemergence, Rate 250 g/ha) | Wheat plant response rating (wheat; [4]) | Plant response rating, Wheat (wheat; [5]) | Plant response rating, Rice (0 to 10 scale, 0 is no effect, 10 is complete control) (rice) | Rice plant response rating (0 to 10 scale, 0 is no effect, 10 is complete control) (rice) | Rice plant response rating (rice; [7]) | Rice plant response rating (rice; [8]) | Plant response rating, Ducksalad (0 to 10 scale, 0 is no effect, 10 is complete control) (duck salad) | Ducksalad plant response rating (0 to 10 scale, 0 is no effect, 10 is complete control) (duck salad) | Ducksalad plant response rating (duck salad; [7]) | Ducksalad plant response rating (duck salad; [8]) | Plant response rating, Bedstraw (bedstraw; [9]) | other results
CC(C)N(C(=O)n1oc(=O)n(CCC2OCCO2)c1=O)c1ccccc1 [Compound 560] | 0 | 0 | 0 | 5 | 8 | 6 | 3 | 5 | 6 | 8 | 3 | 0 | 0 | 0 | 0 | 0 | 0 | 0 | 0 | – | Plant response rating, Bedstraw (bedstraw; [5]): 0; Wheat plant response rating (wheat; [1]): 0
CC(C)N(C(=O)n1oc(=O)n(C(C)C(=O)c2ccccc2)c1=O)c1ccccc1 (stereo not drawn) [Compound 570] | 0 | 0 | 0 | 0 | 0 | 0 | 0 | 0 | 0 | 0 | 0 | 0 | 0 | 0 | 0 | 0 | 0 | 0 | 0 | – | –
CC(C)N(C(=O)n1oc(=O)n(CC(=O)C(F)(F)F)c1=O)c1ccc(F)cc1F [Compound 598] | 0 | 0 | – | 0 | 0 | 0 | 0 | – | – | – | – | 0 | 0 | 0 | 0 | 0 | 0 | 0 | 0 | 0 | Bedstraw plant response rating (bedstraw; [10]): 0; Plant response rating, Wheat (wheat; [9]): 0; Wheat plant response rating (wheat; [11]): 0; Wheat plant response rating (wheat; [10]): 0; Plant response rating, Wheat (wheat; [4]): 0
CC(C)N(C(=O)n1oc(=O)n(CC2=NOCCC2)c1=O)c1ccc(F)cc1F [Compound 602] | – | 0 | – | 0 | 0 | 0 | 0 | – | – | – | – | 0 | 0 | 0 | 0 | 0 | 0 | 0 | 0 | 3 | Bedstraw plant response rating (bedstraw; [11]): 3; Bedstraw plant response rating (bedstraw; [10]): 0; Plant response rating, Wheat (wheat; Postemergence, Rate 62 g/ha, scale 0 to 10, 0 is no effect, 10 is complete control): 0; Plant response rating, Wheat (wheat; [9]): 0; Wheat plant response rating (wheat; [11]): 0; Wheat plant response rating (wheat; [10]): 0; Plant response rating, Wheat (wheat; [4]): 0
